{
  "source": "patent US5932709A",
  "about": "(University of Michigan, priority 1997, dated 1999)",
  "key": {"[1]": {"assay": "Murine P388 leukemia model in vivo", "parameters": "species or system mouse (B6D2F1)", "conditions": "mouse, in vivo, ip; i.p. daily×5", "experimental": "For the B16 melanoma model, the following procedure was used. B6D2F1 mice receive i.p. inocula of B16 murine melanoma brei prepared from B16 tumors growing s.c. in mice (day 0). […] If dosing information for agents is not available, the maximum tolerated dose (MTD) is determined in initial dose finding experiments in non-tumored mice.\nThe mean survival times of all groups are calculated, and results are expressed as mean survival of treated mice/mean survival of control mice (T/C)×100%. A T/C value of 150 means that the mice in the treated group lived 50% longer than those of the control group; this is sometimes referred to as the increase in life span or ILS value.\nFor the P388 leukemia model, the procedure followed is exactly the same as the aforementioned B16 model. The tumor inoculum is prepared by removing ascited fluid containing P388 cells from tumored B6D2F1 mice, centrifuging the cells, and then resuspending the leukemia cells in saline. Mice receive 1×10^6 P388 cells i.p. on day 0."}, "[2]": {"tested_on": "human lung tumor xenograft", "assay": "Human lung tumor xenograft model", "format": "in vivo, human tumor in nude mice", "source_text": "(§1) For the human lung and prostate tumor xenograft models the following procedure was used. Nude mice were implanted s.c. by trocar with fragments of human lung or prostate carcinomas harvested from s.c. growing tumors in nude mice hosts. When tumors were approximately 5 mm×5 mm in size (usually ten to fourteen days after inoculation), the animals were pair-matched into treatment and control groups. Each group contained 10 tumored mice, each of which was ear-tagged and followed individually throughout the experiment. […] The doses, route of drug administration and schedule were selected as appropriate for the study in question. (See above protocol). […] Topotecan was run as a positive control at its MTD dose on a daily×5 and a daily×1 schedule. Male nude mice were used for both prostate studies.\n(§2) Mice are weighed twice weekly, and tumor measurements were taken by calipers twice weekly, starting on day 1.\n(§3) Some drugs cause tumor shrinkage in the human tumor xenograft models. […] A mean % tumor shrinkage can be calculated from the data from the mice in a group that experienced tumor regressions."}, "[3]": {"assay": "Solubility of HAR7 in various solvents and solvent systems", "format": "physicochemical", "experimental": "In addition to testing for water solubility, one of the analogs of the present invention, HAR7, was tested for solubility in various other solvents and solvent mixtures, to determine the system which provides the greatest solubility for the analog. The results of those solubility experiments are shown below in Table 2:\nThe solubility of HAR7 in various solvents and solvent systems was measured using one of two experimental methods, depending on the conditions and solvents used.\nFirst, an evaporation method was used in which an excess quantity of HAR7 was added to the solvent of choice. The mixture was finely divided using ultrasonic vibration in order to dissolve the material thoroughly. The resulting mixture was filtered and the solution was evaporated to dryness using a rotary evaporator.\nSecond, a spectrophotometric method was used in which an excess quantity of HAR7 was added to the solvent of choice. The mixture was finely divided using ultrasonic vibration in order to dissolve the maximum amount of solid. The resulting suspension was filtered through a 0.45 μm nylon filter, and the clear solution was diluted in the same solvent and its concentration was measure spectrophotometrically, based upon an extinction coefficient of 17000 at 258 nm."}, "[4]": {"tested_on": "human prostate tumor xenograft", "assay": "Human prostate tumor xenograft model", "format": "in vivo, human tumor in nude mice", "source_text": "as §1, §2, §3"}},
  "data": [
    {"smiles": "CC[C@@]1(O)C(=O)OCc2c1cc1n(c2=O)Cc2c-1nc1ccccc1c2CO[C@@H]1C=C[C@H](O[C@H]2O[C@H](CO)[C@@H](O)[C@H](O)[C@H]2O)[C@@H](CO)O1", "note": "[HAR6, 7-[4-O-(α-D-glucopyranosyl)-2,3-dideoxy-α-D-erythro-hex-2-enopyranosyl]-oxymethylcamptothecin]", "values": [
      {"measurement": "MTD", "setting": "[1]", "value": 100, "unit": "mg/kg"}
    ]},
    {"smiles": "CC[C@@]1(O)C(=O)OCc2c1cc1n(c2=O)Cc2c-1nc1ccccc1c2CO[C@@H]1C=C[C@H](O)[C@@H](CO)O1", "note": "[HAR7, 7-[2,3-dideoxy-α-D-erythro-hex-2-enopyranosyl]-oxymethylcamptothecin]", "values": [
      {"measurement": "complete disappearance of tumors (animals)", "setting": "[2]; 30 mg/kg daily×5", "value": 2},
      {"measurement": "Deaths", "setting": "[2]; 30 mg/kg × 5 days", "value": "0/10"},
      {"measurement": "Shrink (% Tumor Shrinkage Rate)", "setting": "[2]; 30 mg/kg × 5 days", "value": 100, "unit": "%"},
      {"measurement": "Shrink (number of animals)", "setting": "[2]; 30 mg/kg × 5 days", "value": "2/10"},
      {"measurement": "TGI (% Tumor Growth Inhibition Rate)", "setting": "[2]; 30 mg/kg × 5 days", "value": 67, "unit": "%"},
      {"measurement": "TGI (number of animals)", "setting": "[2]; 30 mg/kg × 5 days", "value": "8/10"},
      {"measurement": "Deaths", "setting": "[2]; 200 mg single ds", "value": "1/10"},
      {"measurement": "Shrink (% Tumor Shrinkage Rate)", "setting": "[2]; 200 mg single ds", "value": 67, "unit": "%"},
      {"measurement": "Shrink (number of animals)", "setting": "[2]; 200 mg single ds", "value": "2/10"},
      {"measurement": "TGI (% Tumor Growth Inhibition Rate)", "setting": "[2]; 200 mg single ds", "value": 64, "unit": "%"},
      {"measurement": "TGI (number of animals)", "setting": "[2]; 200 mg single ds", "value": "7/10"},
      {"measurement": "activity against lung xenograft model", "setting": "[2]; in words", "value": "outstanding activity"},
      {"measurement": "efficacy, single dose", "setting": "[2]; single dose, in words", "value": "significant tumor growth inhibition"},
      {"measurement": "solubility", "setting": "[3]; 0.1 m citrate buffer, aqueous buffer", "value": 24, "unit": "µg/mL"},
      {"measurement": "solubility", "setting": "[3]; 0.2 m acetate buffer, aqueous buffer", "value": 23, "unit": "µg/mL"},
      {"measurement": "solubility", "setting": "[3]; 0.2 m na2hpo4 buffer, aqueous buffer", "value": 30, "unit": "µg/mL"},
      {"measurement": "solubility", "setting": "[3]; 0.2 m nah2po4 buffer, aqueous buffer", "value": 32, "unit": "µg/mL"},
      {"measurement": "solubility", "setting": "[3]; 2 m acetate buffer, aqueous buffer", "value": 29, "unit": "µg/mL"},
      {"measurement": "solubility", "setting": "[3]; 4:1:5 pg/ethanol/dsw, organic solvent or mixture", "value": 960, "unit": "µg/mL"},
      {"measurement": "solubility", "setting": "[3]; 4:1:5 pg/ethanol/saline, organic solvent or mixture", "value": 893, "unit": "µg/mL"},
      {"measurement": "solubility", "setting": "[3]; 4:1:5 pg/ethanol/water, organic solvent or mixture", "value": 740, "unit": "µg/mL"},
      {"measurement": "solubility", "setting": "[3]; 5% ethanol/dsw, organic solvent or mixture", "value": 177, "unit": "µg/mL"},
      {"measurement": "solubility", "setting": "[3]; 5% ethanol/water, organic solvent or mixture", "value": 80, "unit": "µg/mL"},
      {"measurement": "solubility", "setting": "[3]; 10% ethanol/water, organic solvent or mixture", "value": 143, "unit": "µg/mL"},
      {"measurement": "solubility", "setting": "[3]; 20% ethanol/water, organic solvent or mixture", "value": 380, "unit": "µg/mL"},
      {"measurement": "solubility", "setting": "[3]; organic solvent or mixture, PEG 300 (Polyethylene Glycol 300)", "value": "> 5000", "unit": "µg/mL"},
      {"measurement": "solubility", "setting": "[3]; pure ethanol, organic solvent or mixture", "value": 1980, "unit": "µg/mL"},
      {"measurement": "Deaths", "setting": "[4]; 30 mg/kg × 5 days", "value": "0/10"},
      {"measurement": "Shrink (number of animals)", "setting": "[4]; 30 mg/kg × 5 days", "value": "0/10"},
      {"measurement": "TGI (% Tumor Growth Inhibition Rate)", "setting": "[4]; 30 mg/kg × 5 days", "value": 77, "unit": "%"},
      {"measurement": "TGI (number of animals)", "setting": "[4]; 30 mg/kg × 5 days", "value": "10/10"},
      {"measurement": "Deaths", "setting": "[4]; 100 mg single ds", "value": "0/10"},
      {"measurement": "Shrink (% Tumor Shrinkage Rate)", "setting": "[4]; 100 mg single ds", "value": 20, "unit": "%"},
      {"measurement": "Shrink (number of animals)", "setting": "[4]; 100 mg single ds", "value": "1/10"},
      {"measurement": "TGI (% Tumor Growth Inhibition Rate)", "setting": "[4]; 100 mg single ds", "value": 51, "unit": "%"},
      {"measurement": "TGI (number of animals)", "setting": "[4]; 100 mg single ds", "value": "9/10"},
      {"measurement": "Deaths", "setting": "[4]; 200 mg single ds", "value": "0/10"},
      {"measurement": "Shrink (number of animals)", "setting": "[4]; 200 mg single ds", "value": "0/10"},
      {"measurement": "TGI (% Tumor Growth Inhibition Rate)", "setting": "[4]; 200 mg single ds", "value": 80, "unit": "%"},
      {"measurement": "TGI (number of animals)", "setting": "[4]; 200 mg single ds", "value": "10/10"},
      {"measurement": "activity against prostate xenograft model", "setting": "[4]; in words", "value": "outstanding activity"},
      {"measurement": "efficacy, single dose", "setting": "[4]; single dose, in words", "value": "significant tumor growth inhibition"}
    ]}
  ]
}
